Like-named read-outs stand apart in the source and are kept apart here.
Columns and labels:
Experiment in all cases: SelectScreen kinase panel screening
Type in all cases: biochemical
[1] = biological target: EPHA1 (Homo sapiens (Human), UniProt P21709)
Description: (§1) The complete list of the kinases given in Table 1 and their details can be found on the ThermoFisher website for Biochemical Kinase assays (thermofisher.com/us/en/home/industrial/pharma-biopharma/drug-discovery-development/target-and-lead-identification-and-validation/kinasebiology.html).

[2] = biological target: PDK1 Direct (Homo sapiens (Human), UniProt O15530)
Description: as §1

[3] = biological target: JAK2 (Homo sapiens (Human), UniProt O60674)
Description: as §1

[4] = biological target: FRAP1 (mTOR) (Homo sapiens (Human), UniProt P42345)
Description: as §1

[5] = biological target: MAP3K8 (COT) (Homo sapiens (Human), UniProt P41279)
Description: as §1

[6] = biological target: LCK (Homo sapiens (Human), UniProt P06239)
Description: as §1

[7] = biological target: SGK (SGK1) (Homo sapiens (Human), UniProt O00141)
Description: as §1

[8] = biological target: MST1R (RON) (Homo sapiens (Human), UniProt Q04912)
Description: as §1

[9] = biological target: FER (Homo sapiens (Human), UniProt P16591)
FER, sequence (P16591 whole entry): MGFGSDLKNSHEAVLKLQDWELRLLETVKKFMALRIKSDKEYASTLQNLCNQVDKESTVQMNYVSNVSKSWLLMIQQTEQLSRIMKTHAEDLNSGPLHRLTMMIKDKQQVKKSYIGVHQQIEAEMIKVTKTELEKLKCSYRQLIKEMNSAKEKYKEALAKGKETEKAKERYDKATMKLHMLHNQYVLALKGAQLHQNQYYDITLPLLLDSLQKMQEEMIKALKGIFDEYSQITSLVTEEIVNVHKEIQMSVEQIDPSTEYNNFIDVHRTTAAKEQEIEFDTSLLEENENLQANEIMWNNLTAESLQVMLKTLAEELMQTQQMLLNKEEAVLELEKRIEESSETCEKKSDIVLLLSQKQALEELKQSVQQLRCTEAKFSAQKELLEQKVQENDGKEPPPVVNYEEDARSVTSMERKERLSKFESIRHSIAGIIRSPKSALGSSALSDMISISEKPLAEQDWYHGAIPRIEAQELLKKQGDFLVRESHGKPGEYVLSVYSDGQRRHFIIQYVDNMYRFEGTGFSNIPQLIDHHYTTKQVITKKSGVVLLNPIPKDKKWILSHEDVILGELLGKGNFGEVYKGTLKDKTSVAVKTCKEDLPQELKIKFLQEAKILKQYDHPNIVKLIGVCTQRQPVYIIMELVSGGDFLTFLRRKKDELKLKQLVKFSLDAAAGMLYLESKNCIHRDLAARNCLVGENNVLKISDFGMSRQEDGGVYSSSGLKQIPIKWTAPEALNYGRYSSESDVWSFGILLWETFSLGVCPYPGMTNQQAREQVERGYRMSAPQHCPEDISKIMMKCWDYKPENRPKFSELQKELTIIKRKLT
Description: as §1

[10] = biological target: CDK1/cyclin B (Homo sapiens (Human), UniProt P06493)
Description: as §1

[11] = biological target: FGR (Homo sapiens (Human), UniProt P09769)
Description: as §1

[12] = biological target: CDK9/cyclin T1 (Homo sapiens (Human), UniProt P50750)
CDK9/cyclin T1, sequence (P50750 whole entry): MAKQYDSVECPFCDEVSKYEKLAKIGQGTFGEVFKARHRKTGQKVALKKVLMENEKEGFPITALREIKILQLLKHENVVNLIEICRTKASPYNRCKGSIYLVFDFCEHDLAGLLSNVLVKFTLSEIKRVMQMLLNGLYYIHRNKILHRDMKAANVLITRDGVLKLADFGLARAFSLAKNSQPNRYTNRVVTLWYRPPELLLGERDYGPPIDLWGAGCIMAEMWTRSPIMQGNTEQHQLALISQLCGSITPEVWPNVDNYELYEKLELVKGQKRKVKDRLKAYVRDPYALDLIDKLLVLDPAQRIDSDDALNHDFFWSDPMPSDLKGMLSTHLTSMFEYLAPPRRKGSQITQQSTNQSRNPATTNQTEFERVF
CDK9/cyclin T1, sequence (O60563 whole entry partner): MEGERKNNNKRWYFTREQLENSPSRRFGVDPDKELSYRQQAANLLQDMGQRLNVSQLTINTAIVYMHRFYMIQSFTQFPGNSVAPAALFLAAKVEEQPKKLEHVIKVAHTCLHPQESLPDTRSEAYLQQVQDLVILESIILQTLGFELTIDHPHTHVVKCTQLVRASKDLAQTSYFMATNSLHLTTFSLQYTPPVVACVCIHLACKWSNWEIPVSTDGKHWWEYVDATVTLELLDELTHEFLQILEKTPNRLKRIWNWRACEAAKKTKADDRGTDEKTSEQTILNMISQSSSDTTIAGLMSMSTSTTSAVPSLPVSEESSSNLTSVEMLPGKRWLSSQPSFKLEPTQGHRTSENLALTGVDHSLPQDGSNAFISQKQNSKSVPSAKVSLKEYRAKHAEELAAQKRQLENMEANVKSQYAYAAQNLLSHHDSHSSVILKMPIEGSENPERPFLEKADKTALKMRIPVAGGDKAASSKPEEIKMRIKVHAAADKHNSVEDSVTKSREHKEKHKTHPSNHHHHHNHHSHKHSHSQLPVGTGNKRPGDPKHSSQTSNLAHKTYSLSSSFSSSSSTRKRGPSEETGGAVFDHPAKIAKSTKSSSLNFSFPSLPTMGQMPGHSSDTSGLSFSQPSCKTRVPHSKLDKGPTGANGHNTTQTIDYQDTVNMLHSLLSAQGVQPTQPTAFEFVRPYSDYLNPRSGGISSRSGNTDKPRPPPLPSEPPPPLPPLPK
Description: as §1

[13] = biological target: PLK3 (Homo sapiens (Human), UniProt Q9H4B4)
Description: as §1

[14] = biological target: ERBB2 (HER2) (Homo sapiens (Human), UniProt P04626)
Description: as §1

[15] = biological target: FLT4 (VEGFR3) (Homo sapiens (Human), UniProt P35916)
FLT4 (VEGFR3), sequence (P35916 25-1363): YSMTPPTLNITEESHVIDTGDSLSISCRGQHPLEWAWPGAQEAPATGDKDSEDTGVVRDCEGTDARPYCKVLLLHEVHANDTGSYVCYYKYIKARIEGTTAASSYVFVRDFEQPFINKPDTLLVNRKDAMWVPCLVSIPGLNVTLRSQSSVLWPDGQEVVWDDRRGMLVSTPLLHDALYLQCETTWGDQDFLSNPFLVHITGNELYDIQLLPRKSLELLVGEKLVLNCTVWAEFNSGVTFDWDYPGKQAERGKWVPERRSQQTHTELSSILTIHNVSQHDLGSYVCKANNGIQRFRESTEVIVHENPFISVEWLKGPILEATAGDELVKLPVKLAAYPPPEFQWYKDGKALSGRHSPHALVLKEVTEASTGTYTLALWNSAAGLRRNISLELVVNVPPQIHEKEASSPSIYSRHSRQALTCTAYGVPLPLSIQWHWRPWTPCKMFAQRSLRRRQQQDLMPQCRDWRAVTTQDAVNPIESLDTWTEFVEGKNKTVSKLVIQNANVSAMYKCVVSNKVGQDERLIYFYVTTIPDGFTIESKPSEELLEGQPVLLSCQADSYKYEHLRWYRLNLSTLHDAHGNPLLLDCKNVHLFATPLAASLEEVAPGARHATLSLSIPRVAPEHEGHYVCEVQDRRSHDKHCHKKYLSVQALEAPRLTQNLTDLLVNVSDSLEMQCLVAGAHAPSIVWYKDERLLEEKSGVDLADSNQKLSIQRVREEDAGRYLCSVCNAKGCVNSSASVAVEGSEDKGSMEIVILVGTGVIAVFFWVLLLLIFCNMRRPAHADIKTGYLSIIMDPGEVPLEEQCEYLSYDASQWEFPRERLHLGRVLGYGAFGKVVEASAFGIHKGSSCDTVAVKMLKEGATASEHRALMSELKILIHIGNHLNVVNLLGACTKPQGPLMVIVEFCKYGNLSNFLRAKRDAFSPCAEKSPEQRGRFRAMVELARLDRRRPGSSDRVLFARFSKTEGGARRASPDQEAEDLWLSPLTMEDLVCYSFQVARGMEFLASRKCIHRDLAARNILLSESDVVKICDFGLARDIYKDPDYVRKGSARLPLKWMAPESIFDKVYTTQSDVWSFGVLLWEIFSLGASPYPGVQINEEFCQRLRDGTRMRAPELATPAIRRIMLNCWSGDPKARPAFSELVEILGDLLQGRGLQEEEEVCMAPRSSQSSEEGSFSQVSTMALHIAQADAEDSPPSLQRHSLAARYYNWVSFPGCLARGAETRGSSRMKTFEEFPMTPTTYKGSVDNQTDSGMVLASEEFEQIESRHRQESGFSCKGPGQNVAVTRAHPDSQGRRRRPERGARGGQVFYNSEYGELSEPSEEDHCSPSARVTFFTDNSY
Description: as §1

[16] = biological target: CSF1R (FMS) (Homo sapiens (Human), UniProt P07333)
Description: as §1

[17] = biological target: FLT1 (VEGFR1) (Homo sapiens (Human), UniProt P17948)
Description: as §1

[18] = biological target: ABL2 (Arg) (Homo sapiens (Human), UniProt P42684)
Description: as §1

[19] = biological target: AURKC (Aurora C) (Homo sapiens (Human), UniProt Q9UQB9)
AURKC (Aurora C), sequence (Q9UQB9 whole entry): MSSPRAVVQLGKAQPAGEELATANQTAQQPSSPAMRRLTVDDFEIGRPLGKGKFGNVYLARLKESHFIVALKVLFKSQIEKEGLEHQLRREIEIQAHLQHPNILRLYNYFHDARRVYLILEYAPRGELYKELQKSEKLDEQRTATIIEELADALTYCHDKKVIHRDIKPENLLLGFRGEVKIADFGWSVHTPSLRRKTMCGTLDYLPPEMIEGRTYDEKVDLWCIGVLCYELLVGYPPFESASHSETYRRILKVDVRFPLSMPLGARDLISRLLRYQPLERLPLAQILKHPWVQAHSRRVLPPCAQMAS
Description: as §1

[20] = biological target: RAF1 (cRAF) Y340D Y341D (Homo sapiens (Human), UniProt P04049, Y340D/Y341D)
RAF1 (cRAF) Y340D Y341D, sequence (P04049 whole entry Y340D/Y341D): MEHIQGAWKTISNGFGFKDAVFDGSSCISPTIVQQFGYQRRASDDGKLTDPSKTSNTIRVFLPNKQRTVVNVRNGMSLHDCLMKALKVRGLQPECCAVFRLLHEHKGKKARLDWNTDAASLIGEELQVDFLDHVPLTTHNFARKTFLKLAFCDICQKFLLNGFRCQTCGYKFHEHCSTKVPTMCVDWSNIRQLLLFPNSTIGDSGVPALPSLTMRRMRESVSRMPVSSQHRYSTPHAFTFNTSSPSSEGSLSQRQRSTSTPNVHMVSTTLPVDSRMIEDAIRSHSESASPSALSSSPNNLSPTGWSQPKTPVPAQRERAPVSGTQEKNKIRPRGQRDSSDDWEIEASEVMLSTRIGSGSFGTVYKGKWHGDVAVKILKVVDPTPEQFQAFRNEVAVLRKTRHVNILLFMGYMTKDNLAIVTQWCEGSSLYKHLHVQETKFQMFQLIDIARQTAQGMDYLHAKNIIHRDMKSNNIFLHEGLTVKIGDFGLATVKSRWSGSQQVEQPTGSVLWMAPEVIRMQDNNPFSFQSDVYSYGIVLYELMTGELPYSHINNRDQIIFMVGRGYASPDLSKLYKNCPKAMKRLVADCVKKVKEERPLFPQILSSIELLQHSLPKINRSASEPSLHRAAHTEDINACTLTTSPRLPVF
Description: as §1

[21] = biological target: NEK2 (Homo sapiens (Human), UniProt P51955)
Description: as §1

[22] = biological target: IGF1R (Homo sapiens (Human), UniProt P08069)
Description: as §1

[23] = biological target: CSNK2A1 (CK2 alpha 1) (Homo sapiens (Human), UniProt P68400)
Description: as §1

[24] = biological target: PIM1 (Homo sapiens (Human), UniProt P11309)
Description: as §1

[25] = biological target: FGFR4 (Homo sapiens (Human), UniProt P22455)
Description: as §1

[26] = biological target: AURKB (Aurora B) (Homo sapiens (Human), UniProt Q96GD4)
AURKB (Aurora B), sequence (Q96GD4 whole entry): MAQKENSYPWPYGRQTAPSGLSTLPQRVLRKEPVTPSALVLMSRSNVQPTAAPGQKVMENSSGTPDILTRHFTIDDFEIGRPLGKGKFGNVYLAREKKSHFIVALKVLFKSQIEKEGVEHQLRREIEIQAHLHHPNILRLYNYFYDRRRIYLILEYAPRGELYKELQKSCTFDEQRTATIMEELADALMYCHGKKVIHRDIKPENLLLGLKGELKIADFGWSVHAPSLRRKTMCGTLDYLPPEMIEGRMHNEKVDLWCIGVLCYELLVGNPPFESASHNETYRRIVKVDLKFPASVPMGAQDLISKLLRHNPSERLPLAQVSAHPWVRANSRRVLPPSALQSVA
Description: as §1

[27] = biological target: ALK (Homo sapiens (Human), UniProt Q9UM73)
Description: as §1

[28] = biological target: AKT2 (PKB beta) (Homo sapiens (Human), UniProt P31751)
AKT2 (PKB beta), sequence (P31751 whole entry): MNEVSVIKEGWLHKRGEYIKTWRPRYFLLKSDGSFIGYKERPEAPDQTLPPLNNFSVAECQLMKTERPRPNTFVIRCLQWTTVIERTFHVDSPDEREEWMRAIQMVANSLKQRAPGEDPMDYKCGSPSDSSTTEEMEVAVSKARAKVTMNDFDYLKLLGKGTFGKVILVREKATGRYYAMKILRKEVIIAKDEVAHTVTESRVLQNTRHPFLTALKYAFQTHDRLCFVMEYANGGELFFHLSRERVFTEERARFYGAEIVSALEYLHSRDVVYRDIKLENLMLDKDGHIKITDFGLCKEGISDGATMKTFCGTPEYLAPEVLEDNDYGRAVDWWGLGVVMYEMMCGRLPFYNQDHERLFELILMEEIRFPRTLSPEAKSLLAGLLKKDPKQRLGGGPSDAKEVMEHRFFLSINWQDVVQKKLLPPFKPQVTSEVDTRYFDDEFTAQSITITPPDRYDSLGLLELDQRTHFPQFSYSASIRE
Description: as §1

[29] = biological target: IKBKE (IKK epsilon) (Homo sapiens (Human), UniProt Q14164)
Description: as §1

[30] = biological target: PTK2B (FAK2) (Homo sapiens (Human), UniProt Q14289)
Description: as §1

[31] = biological target: KDR (VEGFR2) (Homo sapiens (Human), UniProt P35968)
Description: as §1

inhibition at 10 µM ([1]; read-out: % Inhibition): 15% | inhibition at 10 µM ([1]; read-out: % Inhibition class): < 40% | inhibition at 10 µM ([2]; read-out: % Inhibition): 33% | inhibition at 10 µM ([2]; read-out: % Inhibition class): < 40% | inhibition at 10 µM ([3]; read-out: % Inhibition): 22% | inhibition at 10 µM ([3]; read-out: % Inhibition class): < 40% | inhibition at 10 µM ([4]; read-out: % Inhibition): 6% | inhibition at 10 µM ([4]; read-out: % Inhibition class): < 40% | inhibition at 10 µM ([5]; read-out: % Inhibition): 29% | inhibition at 10 µM ([5]; read-out: % Inhibition class): < 40% | inhibition at 10 µM ([6]; read-out: % Inhibition): 31% | inhibition at 10 µM ([6]; read-out: % Inhibition class): < 40% | inhibition at 10 µM ([7]; read-out: % Inhibition): 50% | inhibition at 10 µM ([7]; read-out: % Inhibition class): 40 to 80% | inhibition at 10 µM ([8]; read-out: % Inhibition): 27% | inhibition at 10 µM ([8]; read-out: % Inhibition class): < 40% | inhibition at 10 µM ([9]; read-out: % Inhibition): 23% | inhibition at 10 µM ([9]; read-out: % Inhibition class): < 40% | inhibition at 10 µM ([10]; read-out: % Inhibition): 8% | inhibition at 10 µM ([10]; read-out: % Inhibition class): < 40% | inhibition at 10 µM ([11]; read-out: % Inhibition): 51% | inhibition at 10 µM ([11]; read-out: % Inhibition class): 40 to 80% | % Inhibition ([12]; 10 μM): 16% | inhibition at 10 µM ([12]; read-out: % Inhibition): 10% | inhibition at 10 µM ([12]; read-out: % Inhibition class): < 40% | inhibition at 10 µM ([13]; read-out: % Inhibition): 77% | inhibition at 10 µM ([13]; read-out: % Inhibition class): 40 to 80% | inhibition at 10 µM ([14]; read-out: % Inhibition): 6% | inhibition at 10 µM ([14]; read-out: % Inhibition class): < 40% | inhibition at 10 µM ([15]; read-out: % Inhibition): 55% | inhibition at 10 µM ([15]; read-out: % Inhibition class): 40 to 80% | inhibition at 10 µM ([16]; read-out: % Inhibition): 26% | inhibition at 10 µM ([16]; read-out: % Inhibition class): < 40% | inhibition at 10 µM ([17]; read-out: % Inhibition): 18% | inhibition at 10 µM ([17]; read-out: % Inhibition class): < 40% | inhibition at 10 µM ([18]; read-out: % Inhibition): 54% | inhibition at 10 µM ([18]; read-out: % Inhibition class): 40 to 80% | inhibition at 10 µM ([19]; read-out: % Inhibition): 40% | inhibition at 10 µM ([19]; read-out: % Inhibition class): < 40% | inhibition at 10 µM ([20]; read-out: % Inhibition): 6% | inhibition at 10 µM ([20]; read-out: % Inhibition class): < 40% | inhibition at 10 µM ([21]; read-out: % Inhibition): -20% | inhibition at 10 µM ([21]; read-out: % Inhibition class): < 40% | inhibition at 10 µM ([22]; read-out: % Inhibition): 10% | inhibition at 10 µM ([22]; read-out: % Inhibition class): < 40% | inhibition at 10 µM ([23]; read-out: % Inhibition): 5% | inhibition at 10 µM ([23]; read-out: % Inhibition class): < 40% | inhibition at 10 µM ([24]; read-out: % Inhibition): 35% | inhibition at 10 µM ([24]; read-out: % Inhibition class): < 40% | inhibition at 10 µM ([25]; read-out: % Inhibition): 20% | inhibition at 10 µM ([25]; read-out: % Inhibition class): < 40% | inhibition at 10 µM ([26]; read-out: % Inhibition): 63% | inhibition at 10 µM ([26]; read-out: % Inhibition class): 40 to 80% | inhibition at 10 µM ([27]; read-out: % Inhibition): 32% | inhibition at 10 µM ([27]; read-out: % Inhibition class): < 40% | inhibition at 10 µM ([28]; read-out: % Inhibition): 9% | inhibition at 10 µM ([28]; read-out: % Inhibition class): < 40% | inhibition at 10 µM ([29]; read-out: % Inhibition): 16% | inhibition at 10 µM ([29]; read-out: % Inhibition class): < 40% | inhibition at 10 µM ([30]; read-out: % Inhibition): 18% | inhibition at 10 µM ([30]; read-out: % Inhibition class): < 40% | inhibition at 10 µM ([31]; read-out: % Inhibition): 56% | inhibition at 10 µM ([31]; read-out: % Inhibition class): 40 to 80%
SMILES: Nc1cc(N)c2c(c1)C(=O)NC2=O [RJ1, 4,6-diaminoisoindoline-1,3-dione]
